Results on 1 compound are retold here after ChEMBL document CHEMBL4190174 (2016).

Calls of active or inactive are those of the source. The calls are words filed in the database; no cut-off is given here.

For assay [1], the system named is dsDNA. As to the kind of experiment: Induction of double stranded DNA break in MGMT-transfected human U373 cells assessed as increase in gamma-H2AX level at 100 uM after 72 hrs by flow cytometry relative to control. Format: cell-based. A general note: Flow cytometry measures light scatter and fluorescence of single cells or particles in a stream.
Assay [2] deals with SNB-19. As to the kind of experiment: Growth inhibition of empty vector transfected human SNB19 cells after 7 days by MTT assay. Format: functional. The following applies: SNB-19, 168 h. For orientation: Formazan colour is commonly taken as a measure of viable cells.
Assay [3] relates to SNB-19. As to the kind of experiment: Growth inhibition of MGMT-transfected human SNB19 cells after 7 days by MTT assay. Format: functional. Particulars: SNB-19, 168 h.
Assay [4] has as its system U373 MG. As to the kind of experiment: Growth inhibition of empty vector transfected human U373 cells after 7 days by MTT assay. Format: functional, U-373MG ATCC. Particulars: 168 h.
Assay [5] has as its system U373 MG. Kind of assay: Growth inhibition of MGMT-transfected human U373 cells after 7 days by MTT assay. Type of assay: functional, U-373MG ATCC. Particulars: 168 h.
The nature of assay [6]: Growth inhibition of human SNB19VR cells by MTT assay. Type of assay: functional.
Assay [7] in a line: Growth inhibition of human U373VR cells by MTT assay. Type of assay: functional.
For another assay, the system named is HCT-116. As to the kind of experiment: Growth inhibition of human HCT116 cells harboring hMLH1 mutation relative to temozolomide. Type of assay: functional.
The next assay has as its system DLD-1. As to the kind of experiment: Growth inhibition of human DLD1 cells harboring hMSH6 mutation relative to temozolomide. Format: functional.
The subject of the next assay is Escherichia coli. As to the kind of experiment: Induction of Escherichia coli linearized pBR322 DNA alkylation at clusters of 3/5 guanines using 5'-end labeled [gamma32P]ATP primer after 2 hrs by PAGE based taq polymerase stop assay.
Assay [8] has as its system DNA. As to the kind of experiment: Induction of Escherichia coli pBR322 DNA cleavage assessed as covalent modification at N-7 guanine at 10 to 1000 uM after 2 hrs by PAGE based autoradiographic method. Format: nucleic-acid assay.
Assay [9] relates to DNA. As to the kind of experiment: Induction of Escherichia coli pBR322 DNA interstrand cross linking using 5'-end labeled [gamma32P]ATP primer at <=1000 uM after 2 to 40 hrs by PAGE based autoradiographic method. Type of assay: nucleic-acid assay.
The test system of assay [10] is dsDNA. Kind of assay: Induction of double stranded DNA break in MGMT-transfected human U373 cells assessed as increase in gamma-H2AX level at 100 uM after 72 hrs by flow cytometry. Type of assay: cell-based.

For the compound `C#CCn1nnc2c(C(N)=O)ncn2c1=O`, the fold change (FC) was over 2 in the assay with dsDNA [1], over 10 in the assay with HCT-116 and over 10 in the assay with DLD-1. Moreover, the GI50 in the assay on SNB-19 [2] was 35.6 µM; in the assay on SNB-19 [3], 37.8 µM; with U373 MG [4] it was 37.6 µM; in the assay with U373 MG [5], 36.1 µM; in assay [6], under 50 µM; in assay [7], under 50 µM. In the assay on Escherichia coli, the Activity entry was “Dose-dependent effect”. Also, the result in the assay on DNA [8] and with dsDNA [10] was Active. The outcome with DNA [9] was inactive.

What is called GI50 is the concentration giving 50% growth inhibition. A higher GI50 goes with less potent growth inhibition.
